Measurements as given in patent US20090247519A1, “AMINO-ETHYL-AMINO-ARYL (AEAA) COMPOUNDS AND THEIR USE” (priority 2006, published 2009).

Target: T1, Human full length PKD1 (Homo sapiens, UniProt Q15139)
T1 construct: Human full length PKD1 at ˜100 μg/mL purchased from Upstate Ltd; purchased Upstate Ltd 14-508
T1 sequence (Q15139 1-912): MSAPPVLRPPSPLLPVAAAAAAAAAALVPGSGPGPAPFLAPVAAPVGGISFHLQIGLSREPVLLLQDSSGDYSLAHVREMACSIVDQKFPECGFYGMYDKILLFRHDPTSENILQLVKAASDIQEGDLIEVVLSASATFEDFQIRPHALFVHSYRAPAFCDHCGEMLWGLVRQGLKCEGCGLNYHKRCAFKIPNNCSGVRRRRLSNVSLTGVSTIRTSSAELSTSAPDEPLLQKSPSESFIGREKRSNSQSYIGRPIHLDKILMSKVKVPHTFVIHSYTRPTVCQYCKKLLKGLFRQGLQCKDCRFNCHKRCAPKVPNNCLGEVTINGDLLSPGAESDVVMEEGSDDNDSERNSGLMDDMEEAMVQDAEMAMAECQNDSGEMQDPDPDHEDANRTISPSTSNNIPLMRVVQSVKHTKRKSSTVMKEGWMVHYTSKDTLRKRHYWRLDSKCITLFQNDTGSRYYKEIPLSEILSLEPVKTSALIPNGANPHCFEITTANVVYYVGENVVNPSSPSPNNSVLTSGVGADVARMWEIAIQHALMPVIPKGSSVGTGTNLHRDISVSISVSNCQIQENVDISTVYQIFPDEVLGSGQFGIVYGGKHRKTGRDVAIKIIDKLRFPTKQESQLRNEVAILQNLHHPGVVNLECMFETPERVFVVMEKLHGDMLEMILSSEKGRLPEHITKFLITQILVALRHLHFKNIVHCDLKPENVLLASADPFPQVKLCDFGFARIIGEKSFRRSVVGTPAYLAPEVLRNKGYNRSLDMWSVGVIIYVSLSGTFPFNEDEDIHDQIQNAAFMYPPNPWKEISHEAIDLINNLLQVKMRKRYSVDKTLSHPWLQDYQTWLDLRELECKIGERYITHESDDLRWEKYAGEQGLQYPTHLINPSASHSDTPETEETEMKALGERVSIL
Experiment: PKD1 (Human Full Length) Enzyme Activity Assay (IMAP fluorescence polarisation)
Assay type: biochemical
Conditions: 10 μM ATP, 10 point dose-response
Experimental: PKD1 (Human Full Length) Enzyme Activity Assay
Kinase Assay Reaction Buffer: This consisted of 0.22 μM filtered 25 mM HEPES and 2 mM MgCl2 pH 7.5.
Kinase Enzyme Human full length PKD1 at ˜100 μg/mL purchased from Upstate Ltd (Product code 14-508) was obtained from aliquots stored at −70° C. It was prepared with a final concentration of 0.3 μg/mL by diluting 1:300 in Reaction Buffer (30 μL per 9 mL-5 mL per plate with an additional 4 mL dead volume) and vortexing prior to use.
Substrate: Fluorescein labelled glycogen synthase-derived peptide (FI)-KKLNRTLSVA (also known as MAPKAP K2 substrate) was obtained from Molecular Devices (Product code R7127). […]
The fluorescence polarisation of the substrate in each well was recorded using an analyst microplate reader (Molecular Devices) with a single read at Ex485 Em535 (Analyst settings: Z Height 5 mm, G Factor 0.95, Reads/well 1, Integration 100000 μs, Gain Sensitivity 2).
Percentage inhibition was calculated based on activity of the test sample minus the average values in the blank wells relative to the average values measured in control wells minus the average values in the blank wells.
IC50 values were calculated from 10 point dose sigmoid ‘dose-response’ curves using XIfit software (IDBS inc, USA). […]

IC50: 0.9 nM
Compound: CC[C@@H](N)CN(C)c1ccnc(-c2cc(Cl)ccc2O)n1 [XX-276, 2-{4-[((R)-2-Amino-butyl)-methyl-amino]-pyrimidin-2-yl}-4-chloro-phenol]
